Results reported in US20140155589A1 (priority 2011, published 2014).
Like-named read-outs stand apart in the source and are kept apart here.

Tested on: Pseudomonas aeruginosa (PA 01 strain)
Conditions: for Amount of pyocyanine produced per viable bacterial count Relative value (%): relative to control without compound; for Viable bacterial count: shake culture 37° C. 48 hours; for viable bacterial count compared with control: summary of Table 12; for amount of pyocyanine produced per viable bacterial count compared with control: summary of Table 13
[1] = Concentration of compound added 10 mM
[2] = Concentration of compound added 20 mM
[3] = Concentration of compound added 25 mM

For `C=CC(=O)O` [Acrylic acid], the “Amount of pyocyanine produced per viable bacterial count Relative value (%)” value [1] was 250.1%, the Viable bacterial count [1] was 1.09e+09 mL⁻¹ and the “Amount of pyocyanine produced per viable bacterial count Relative value (%)” value [2] was 201.8%. The Viable bacterial count [2] was 9.4e+08 mL⁻¹, the “Amount of pyocyanine produced per viable bacterial count Relative value (%)” value [3] was 233.1% and the Viable bacterial count [3] was 8.4e+08 mL⁻¹. For the same compound, the “viable bacterial count compared with control” value was “almost no difference” and the “amount of pyocyanine produced per viable bacterial count compared with control” value was “larger than that in the control”.

`O=P(O)(O)O` [Phosphoric acid] was tested, and the “Amount of pyocyanine produced per viable bacterial count Relative value (%)” value [1] was 118%, the Viable bacterial count [1] was 1.6e+09 mL⁻¹ and the “Amount of pyocyanine produced per viable bacterial count Relative value (%)” value [2] was 105.8%. For the same compound, the Viable bacterial count [2] was 1.56e+09 mL⁻¹, the “Amount of pyocyanine produced per viable bacterial count Relative value (%)” value [3] was 107.6% and the Viable bacterial count [3] was 1.49e+09 mL⁻¹. The “viable bacterial count compared with control” value was “almost no difference” and the “amount of pyocyanine produced per viable bacterial count compared with control” value was “not so different”.

With `O=P(O)(O)OP(=O)(O)OP(=O)(O)O` [Triphosphoric acid] the “Amount of pyocyanine produced per viable bacterial count Relative value (%)” value [1] was 40.3%, the Viable bacterial count [1] was 1.5e+09 mL⁻¹ and the “Amount of pyocyanine produced per viable bacterial count Relative value (%)” value [2] was 11.5%. For the same compound, the Viable bacterial count [2] was 1.5e+09 mL⁻¹, the “Amount of pyocyanine produced per viable bacterial count Relative value (%)” value [3] was 5.4% and the Viable bacterial count [3] was 1.52e+09 mL⁻¹. For the same compound, the “viable bacterial count compared with control” value was “almost no difference” and the “amount of pyocyanine produced per viable bacterial count compared with control” value was “significantly lower”.
